Measured values: US11813340B2, “PSMA targeted radiohalogenated urea-polyaminocarboxylates for cancer radiotherapy” (The Johns Hopkins University, priority 2018, dated 2023)
Read-outs that look alike come from different tables or passages of the source.

Tested on: PSMA+PC3-PIP and PSMA-PC3-flu flank xenografts
Procedure: Final compounds were purified by HPLC. […] Organs were harvested 1, 4, and 24 h post-injection (n=5 per time point).

[1] = 1-hour, Blocker VK-02-90 0.5 nmole
[2] = 1-hour, Blocker VK-02-90 1.0 nmole
[3] = 1-hour, Blocker VK-02-90 5.0 nmole
[4] = 1-hour, Blocker YC-I-27 0.5 nmole
[5] = 1-hour, Blocker YC-I-27 1.0 nmole
[6] = 1-hour, Blocker YC-I-27 5 nmole
[7] = 4-hr, Blocker VK-02-90 0.5 nmole
[8] = 4-hr, Blocker VK-02-90 1.0 nmole

Q: How did the “Biodistribution, Blood” value (1-hour, Blocker None) turn out when `O=C([O-])CN1CCN(CC(=O)[O-])CCN(CC(=O)NCCCCC(=O)N(CCCC[C@H](NC(=O)N[C@@H](CCC(=O)O)C(=O)O)C(=O)O)Cc2ccc([125I])cc2)CCN(CC(=O)[O-])CC1.[Lu+3]` [[^125I]VK-02-90-Lu] was run?
A: 1.1 ± 0.1 % injected dose/g

Q: And the “Biodistribution, Flu tumor” value (1-hour, Blocker None)?
A: 1.0 ± 0.2 % injected dose/g

Q: What about the “Biodistribution, Kidneys” value (1-hour, Blocker None) of the same compound?
A: 129 ± 15 % injected dose/g

Q: And the “Biodistribution, Lacrimal glands” value (1-hour, Blocker None)?
A: 2.1 ± 0.9 % injected dose/g

Q: And the “Biodistribution, PIP tumor” value (1-hour, Blocker None)?
A: 26.0 ± 3.0 % injected dose/g

Q: What about the “Biodistribution, Salivary glands” value (1-hour, Blocker None) of the same compound?
A: 2.3 ± 0.5 % injected dose/g

Q: And the “Biodistribution, Spleen” value (1-hour, Blocker None)?
A: 4.3 ± 0.9 % injected dose/g

Q: What about the “Biodistribution, Stomach” value (1-hour, Blocker None) of the same compound?
A: 1.7 ± 0.3 % injected dose/g

Q: What about the “Biodistribution, Blood” value [1] of the same compound?
A: 0.4 ± 0.1 % injected dose/g

Q: And the “Biodistribution, Flu tumor” value [1]?
A: 0.6 ± 0.3 % injected dose/g

Q: And the “Biodistribution, Kidneys” value [1]?
A: 9.9 ± 2.5 % injected dose/g

Q: And the “Biodistribution, Lacrimal glands” value [1]?
A: 0.4 ± 0.1 % injected dose/g

Q: What about the “Biodistribution, PIP tumor” value [1] of the same compound?
A: 36.7 ± 6.8 % injected dose/g

Q: What about the “Biodistribution, Salivary glands” value [1] of the same compound?
A: 0.2 ± 0.03 % injected dose/g

Q: And the “Biodistribution, Spleen” value [1]?
A: 1.1 ± 0.4 % injected dose/g

Q: And the “Biodistribution, Stomach” value [1]?
A: 0.2 ± 0.1 % injected dose/g

Q: And the “Biodistribution, Blood” value [2]?
A: 0.4 ± 0.1 % injected dose/g

Q: And the “Biodistribution, Flu tumor” value [2]?
A: 0.5 ± 0.1 % injected dose/g

Q: What about the “Biodistribution, Kidneys” value [2] of the same compound?
A: 6.5 ± 0.9 % injected dose/g

Q: And the “Biodistribution, Lacrimal glands” value [2]?
A: 0.4 ± 0.1 % injected dose/g

Q: And the “Biodistribution, PIP tumor” value [2]?
A: 35.1 ± 9.0 % injected dose/g

Q: What about the “Biodistribution, Salivary glands” value [2] of the same compound?
A: 0.2 ± 0.06 % injected dose/g

Q: What about the “Biodistribution, Spleen” value [2] of the same compound?
A: 1.1 ± 0.4 % injected dose/g

Q: And the “Biodistribution, Stomach” value [2]?
A: 0.2 ± 0.04 % injected dose/g

Q: And the “Biodistribution, Blood” value [3]?
A: 0.5 ± 0.1 % injected dose/g

Q: What about the “Biodistribution, Flu tumor” value [3] of the same compound?
A: 0.9 ± 0.3 % injected dose/g

Q: What about the “Biodistribution, Kidneys” value [3] of the same compound?
A: 4.2 ± 0.5 % injected dose/g

Q: And the “Biodistribution, Lacrimal glands” value [3]?
A: 0.4 ± 0.03 % injected dose/g

Q: And the “Biodistribution, PIP tumor” value [3]?
A: 23.5 ± 4.3 % injected dose/g

Q: What about the “Biodistribution, Salivary glands” value [3] of the same compound?
A: 0.3 ± 0.1 % injected dose/g

Q: What about the “Biodistribution, Spleen” value [3] of the same compound?
A: 0.7 ± 0.2 % injected dose/g

Q: And the “Biodistribution, Stomach” value [3]?
A: 0.2 ± 0.06 % injected dose/g

Q: And the “Biodistribution, Blood” value [4]?
A: 1.1 ± 0.1 % injected dose/g

Q: And the “Biodistribution, Flu tumor” value [4]?
A: 1.0 ± 0.3 % injected dose/g

Q: What about the “Biodistribution, Kidneys” value [4] of the same compound?
A: 4.2 ± 1.3 % injected dose/g

Q: And the “Biodistribution, Lacrimal glands” value [4]?
A: 0.5 ± 0.1 % injected dose/g

Q: And the “Biodistribution, PIP tumor” value [4]?
A: 41.8 ± 4.2 % injected dose/g

Q: And the “Biodistribution, Salivary glands” value [4]?
A: 3.2 ± 0.7 % injected dose/g

Q: What about the “Biodistribution, Spleen” value [4] of the same compound?
A: 0.8 ± 0.2 % injected dose/g

Q: What about the “Biodistribution, Stomach” value [4] of the same compound?
A: 1.8 ± 0.2 % injected dose/g

Q: What about the “Biodistribution, Blood” value [5] of the same compound?
A: 1.0 ± 0.1 % injected dose/g

Q: And the “Biodistribution, Flu tumor” value [5]?
A: 0.8 ± 0.2 % injected dose/g

Q: And the “Biodistribution, Kidneys” value [5]?
A: 2.4 ± 0.8 % injected dose/g

Q: What about the “Biodistribution, Lacrimal glands” value [5] of the same compound?
A: 0.6 ± 0.05 % injected dose/g

Q: And the “Biodistribution, PIP tumor” value [5]?
A: 29.1 ± 2.4 % injected dose/g

Q: What about the “Biodistribution, Salivary glands” value [5] of the same compound?
A: 2.9 ± 0.4 % injected dose/g

Q: And the “Biodistribution, Spleen” value [5]?
A: 0.6 ± 0.1 % injected dose/g

Q: And the “Biodistribution, Stomach” value [5]?
A: 1.8 ± 0.3 % injected dose/g

Q: What about the “Biodistribution, Blood” value [6] of the same compound?
A: 1.1 ± 0.2 % injected dose/g

Q: And the “Biodistribution, Flu tumor” value [6]?
A: 0.8 ± 0.2 % injected dose/g

Q: What about the “Biodistribution, Kidneys” value [6] of the same compound?
A: 2.3 ± 0.7 % injected dose/g

Q: And the “Biodistribution, Lacrimal glands” value [6]?
A: 1.1 ± 0.6 % injected dose/g

Q: And the “Biodistribution, PIP tumor” value [6]?
A: 20.1 ± 2.8 % injected dose/g

Q: And the “Biodistribution, Salivary glands” value [6]?
A: 5.1 ± 1.7 % injected dose/g

Q: And the “Biodistribution, Spleen” value [6]?
A: 0.7 ± 0.1 % injected dose/g

Q: And the “Biodistribution, Stomach” value [6]?
A: 2.2 ± 0.7 % injected dose/g

Q: And the “Biodistribution, Blood” value (4-hr, Blocker None)?
A: 0.3 ± 0.2 % injected dose/g

Q: And the “Biodistribution, Flu tumor” value (4-hr, Blocker None)?
A: 0.25 ± 0.1 % injected dose/g

Q: And the “Biodistribution, Kidneys” value (4-hr, Blocker None)?
A: 9.5 ± 2.5 % injected dose/g

Q: What about the “Biodistribution, Lacrimal glands” value (4-hr, Blocker None) of the same compound?
A: 0.4 ± 0.2 % injected dose/g

Q: What about the “Biodistribution, PIP tumor” value (4-hr, Blocker None) of the same compound?
A: 27.4 ± 7.5 % injected dose/g

Q: And the “Biodistribution, Salivary glands” value (4-hr, Blocker None)?
A: 1.8 ± 0.2 % injected dose/g

Q: What about the “Biodistribution, Spleen” value (4-hr, Blocker None) of the same compound?
A: 0.6 ± 0.2 % injected dose/g

Q: What about the “Biodistribution, Stomach” value (4-hr, Blocker None) of the same compound?
A: 0.8 ± 0.5 % injected dose/g

Q: What about the “Biodistribution, Blood” value [7] of the same compound?
A: 0.02 ± 0.01 % injected dose/g

Q: What about the “Biodistribution, Flu tumor” value [7] of the same compound?
A: 0.1 ± 0.02 % injected dose/g

Q: And the “Biodistribution, Kidneys” value [7]?
A: 2.1 ± 0.7 % injected dose/g

Q: And the “Biodistribution, Lacrimal glands” value [7]?
A: 0.1 ± 0.03 % injected dose/g

Q: And the “Biodistribution, PIP tumor” value [7]?
A: 24.8 ± 2.0 % injected dose/g

Q: And the “Biodistribution, Salivary glands” value [7]?
A: 0.08 ± 0.04 % injected dose/g

Q: And the “Biodistribution, Spleen” value [7]?
A: 0.2 ± 0.1 % injected dose/g

Q: And the “Biodistribution, Stomach” value [7]?
A: 0.06 ± 0.01 % injected dose/g

Q: What about the “Biodistribution, Blood” value [8] of the same compound?
A: 0.2 ± 0.01 % injected dose/g

Q: And the “Biodistribution, Flu tumor” value [8]?
A: 0.1 ± 0.03 % injected dose/g

Q: And the “Biodistribution, Kidneys” value [8]?
A: 1.4 ± 0.4 % injected dose/g

Q: What about the “Biodistribution, Lacrimal glands” value [8] of the same compound?
A: 0.1 ± 0.05 % injected dose/g

Q: What about the “Biodistribution, PIP tumor” value [8] of the same compound?
A: 27.1 ± 3.6 % injected dose/g

Q: And the “Biodistribution, Salivary glands” value [8]?
A: 0.1 ± 0.02 % injected dose/g

Q: What about the “Biodistribution, Spleen” value [8] of the same compound?
A: 0.2 ± 0.1 % injected dose/g

Q: What about the “Biodistribution, Stomach” value [8] of the same compound?
A: 0.1 ± 0.03 % injected dose/g

Q: What about the “Biodistribution, Blood” value (4-hr, Blocker VK-02-90 5.0 nmole) of the same compound?
A: 0 % injected dose/g
